Measurements published in patent US8507448B2, “Human CD154-binding synthetic peptide and uses thereof” (Fresenius Medical Care Deutschland G.m.b.H., priority 2007, dated 2013).

Columns and labels:
[1] = system: CD40 stimulation of peripheral B cells by rhsCD154; assay: rhsCD154-induced B cell activation (CD80 and CD86 membrane expression); type: cell-based, human
Method: The histograms of 4A show the effect of the anti-CD154 peptides and the control peptide 4.10-ala, on the activation B cells induced by stimulation with a soluble recombinant human CD154 molecule (rhsCD154). B cells were stimulated for 48 hours with rhsCD154 in the absence and in the presence of a blocking anti-human CD154 antibody or one of the seven selected peptides. Peripheral B cell activation was evaluated by flow cytometry, as the membrane expression of the co-stimulatory molecules CD80 and CD86. […] On the contrary, the activation is prevented when rhsCD154 is used in combination with a blocking anti-human CD154 antibody or with peptide 4.10 (SEQ ID NO: 6).
B cells are known to constitutively express the CD40 molecule on the cells membrane (van Kooten C. et al, J. Leukoc. Biol. 2000). Stimulation of CD40 by CD154-expressing activated T cells, results in B cells activation, proliferation and isotype switching. The inventors employed B cells isolated from whole peripheral blood of healthy donors by gradient-Ficoll centrifugation and immunomagnetical separation (MACS systems—Milteniy). The quiescent B cells thereby obtained, were then stimulated with a soluble form of human recombinant CD154 (rhsCD154) to induce activation and expression of the co-stimulatory molecules CD80 (B7-1) and CD86 (B7-2) on the cell membrane. A drastic increase in membrane expression of CD80 and CD86 on the cell surface of peripheral B cells, after stimulation for 48 hours with rhsCD154 (100 ng/ml) was observed. […] In contrast, pre-incubation for 15 minutes at 37° C. of rhsCD154 (100 ng/ml) with peptide 4.10 (SEQ. ID NO: 6), prior to lymphocyte stimulation, blocked B cells stimulation and the related expression of CD80 and CD86. […] The results are the mean±standard deviation of five different experiments. Similar results were also obtained with B cells isolated from human spleen fragments. […] These experiments were carried out on […] naive B cells, obtained from peripheral blood by negative selection, by depletion of mature lymphocytes from the B cell pool by immunomagnetic separation (MACS Systems Milteniy).

[2] = system: naive B cells; assay: Isotype switching of naive B cells induced by IL-4 and rhsCD154; type: cell-based, human; details: IL-4 0.4 ng/ml and rhsCD154 100 ng/ml, 96 hours, no inhibitor
Method: The graphics of FIG. 5A show the percentage of naive B cells undergoing isotype switching and expressing IgG, under basal condition with no stimulation, after stimulation for 72 hours with IL4 and CD154, […] anti-human CD154 antibody, […] 4.10 (SEQ ID NO: 6), respectively. Peptide 4.10 (SEQ ID NO: 6), just as the anti-CD154 antibody, is capable of strongly inhibiting the isotype switching of immunoglobulins induced by stimulation with rhsCD154 and IL4.
B cells are known to constitutively express the CD40 molecule on the cells membrane (van Kooten C. et al, J. Leukoc. Biol. 2000). Stimulation of CD40 by CD154-expressing activated T cells, results in B cells activation, proliferation and isotype switching. The inventors employed B cells isolated from whole peripheral blood of healthy donors by gradient-Ficoll centrifugation and immunomagnetical separation (MACS systems—Milteniy). The quiescent B cells thereby obtained, were then stimulated with a soluble form of human recombinant CD154 (rhsCD154) to induce activation and expression of the co-stimulatory molecules CD80 (B7-1) and CD86 (B7-2) on the cell membrane. A drastic increase in membrane expression of CD80 and CD86 on the cell surface of peripheral B cells, after stimulation for 48 hours with rhsCD154 (100 ng/ml) was observed. […]

[3] = system: human platelets; assay: Platelet aggregation assay (aggregometer); type: cell-based; details: priming 10 minutes at 37° C.; peptide 60 μM with CD154
Method: Platelet aggregation was measured with an aggregometer, as the increase in light transmission compared to the control. Priming of human platelets with the anti-human CD154 antibody in combination with rhsCD154 increases platelet aggregation upon stimulation with ADP 0.5 μM.
Finally, one of the major advantages of peptide 4.10 is its lack of reactivity towards human platelets. It is know that in the past, a number of clinical trials carried out to test promising anti-CD154 monoclonal antibodies were suddenly discontinued due to dramatic prothrombotic side effects (Kelsoe G. et al, J. Clin. Invest. 2003). The hypothesis is that the anti-CD154 antibodies had triggered a cross-reaction on the surface of human platelets expressing the receptor for the Fc immunoglobulin fraction (FcR) and, after activation, the CD154 molecule. Thus, the inventors tested the effect of peptide 4.10 on platelets, by a platelet aggregation assay. Such experiments were carried out by the use of a thermostatic aggregometer, equipped with a magnetic stirrer and a real time optical density meter. Platelet aggregation was evaluated as the change in optical density versus the reference sample (blank). The experiments were carried out on platelets extracted from peripheral whole blood of healthy donors collected in tubes containing 5 U/ml heparin. In particular, the platelet enriched plasma (PRP), was obtained by whole blood centrifugation at 900 rpm for 20 minutes, while the platelet poor plasma (PPP), used as the reference sample, was obtained collecting the supernatant after another centrifugation at 3000 rpm for 10 minutes. […] Similar results were obtained inducing platelet aggregation with 0.3 U/ml thrombin.

[4] = system: HUVEC; assay: rhsCD154-induced HUVEC motility (time-lapse migration); type: cell-based, human
Method: Peptide 4.10 (SEQ ID NO: 6), contrary to control peptide 4.10-ala (SEQ ID NO: 8), inhibits the rhsCD154-induced motility of endothelial cells.
It is known that an inflammatory process, once triggered, can be preserved by cells outside the immune system expressing particular receptors or lymphocyte co-stimulatory molecules, such as CD40 and its ligand CD154, such as e.g. endothelial cells from the vascular wall. […] In particular, the cell migration experiments were carried out with HUVEC cells plated on gelatin at a density of 4×10^3 in complete endothelial cell medium in the presence of 20% serum. The following day, the endothelial medium was replaced with low glucose DMEM (Sigma) with a reduced serum concentration (5%), in the presence or absence of rhsCD154 (100 ng/ml).
Furthermore, in order to evaluate the inhibitory effect, rhsCD154 (100 ng/ml) was pre-incubated for 15 minutes at 37° C. with peptide 4.10 (SEQ. ID NO: 6), or with control peptide 4.10-ala (SEQ. ID NO: 8), or with a blocking anti-human CD154 antibody. The flasks were then observed at 10× magnification for a period of 4 hours under a phase contrast inverted microscope equipped with a thermostatic chamber (at about 37° C.). The cells were photographed with a camera connected to the microscope, over the whole length of time of 4 hours at regular intervals of 15 minutes each. The migratory speed of each of the cells was calculated based on the position of the nucleus of each single cell in each single frame, using an image analysis software and, as a result, the average cell migratory speed (1 standard deviation) was calculated for each experimental condition. […] As a further confirmation of the ability of peptide 4.10 to prevent human endothelial CD40 stimulation by rhsCD154 (100 ng/ml), HUVECs (3.5×10^4) were subjected to an in vitro angiogenesis assay. HUVECs were plated on a tumor matrix (Matrigel, BD) capable of promoting the formation of super cellular organization, in a basal RPMI medium supplemented with 5% serum. […]

[5] = molecular target: T1, human CD154 expressed on the surface of J558L cells (Homo sapiens, UniProt P29965); assay: Binding of -His6-tagged peptides to J558L CD154+ cells by flow cytometry; details: -His6 peptides 60 μM, 30 minutes at room temperature
T1 construct: expressed in transfected cells; host or cells: J558L murine myeloma cell line transfected with human CD154
T1 sequence (P29965 1-261): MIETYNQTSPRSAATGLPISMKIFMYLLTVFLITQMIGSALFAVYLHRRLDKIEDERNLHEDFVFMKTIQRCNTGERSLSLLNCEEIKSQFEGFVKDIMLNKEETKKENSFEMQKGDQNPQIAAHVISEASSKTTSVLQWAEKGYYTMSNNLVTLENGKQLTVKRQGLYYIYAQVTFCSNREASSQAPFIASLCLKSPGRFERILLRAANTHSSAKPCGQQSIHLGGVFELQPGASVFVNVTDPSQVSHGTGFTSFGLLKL
Method: FIG. 2 represents the binding of the seven peptides obtained from the human CD154-binding clones and tagged with a 6 histidines tail (-His6) to the J558L CD154^+ cells. […] The cells were incubated with each of the -His6-tagged peptides and then with a phycoerythrin-conjugated secondary antibody specific for the -His6 tail. The dotted histogram is the isotopic control, whilst the black line is the binding intensity of the CD154-specific peptides [4.2=4.3=CPSGHTKAC (SEQ ID NO: 1), 4.4=CGTHSSRIC (SEQ ID NO: 2), 4.6=CLGTQNKEC (SEQ ID NO: 3), 4.7=4.12=CTPGKPHSC (SEQ ID NO: 4), 4.8=CKAASANIC (SEQ ID NO: 5), 4.10=CLPTRHMAC (SEQ ID NO: 6) and 4.11=CLSAVHNMC (SEQ ID NO: 7)]. For each experimental condition, 10,000 events were analyzed and the values are the mean and standard deviation of 3 different experiments.
(§1) The peptides were synthesized and conjugated with biotin (-bio) or with a 6-histidine tail (-his6) so as to enable in vitro and in vivo localization. […] Furthermore, a competition assay between the peptides and an anti-human CD154 fluorescein-conjugated antibody (Serotec) specifically recognizing the active site of CD154 was carried out. The J558L cells were incubated with the his6-peptides for 30 minutes at room temperature and then with anti-human CD154 fluorescein-conjugated antibody for another 30 minutes at room temperature. […] In order to identify the amino acid residues of the amino acid sequence of peptide 4.10 which are essential to the binding to CD154, three different peptides were synthesized, each one carrying a point mutation, which amino acid sequences differ from that of peptide 4.10 by replacement of the amino acid residues at positions 4, 5, 6, respectively, with one alanine residue.
The mutated peptides were not capable of recognizing human CD154 expressed at the surface of J558L cells (data not shown).
Similar results were obtained with the four modified peptides 4.101, 4.102, 4.103 e 4.104 having the amino acid sequences illustrated in table II.

[6] = molecular target: T2, active site of human CD154 (Homo sapiens, UniProt P29965); assay: Competition with anti-human CD154 fluorescein-conjugated antibody on J558L cells; type: binding; details: -His6 peptides 30 minutes at room temperature, then antibody
T2 construct: expressed in transfected cells; host or cells: J558L murine myeloma cell line transfected with human CD154
T2 sequence (P29965 1-261): T1 sequence (P29965 1-261)
Method: The murine myeloma cells transfected with human CD154, J558L, were incubated with each of the seven anti-CD154 peptides tagged with a 6 histidines tail (-His6), and then with the anti-CD154 fluorescein-conjugated antibody. The ability of the peptides to compete with the anti-CD154 antibody for the binding to the CD154 molecule expressed on the surface of the J558L cells was evaluated by flow cytometry, as the reduction in the fluorescence intensity compared to the positive control represented by cells incubated with the anti-human CD154 fluorescein-conjugated antibody alone. […] The amino acid sequence of the control peptide differs from that of peptide 4.10 in that an arginine residue is replaced with an alanine residue at amino acid position 5.
as §1

[7] = system: HUVEC; assay: In vitro angiogenesis: cell cord formation of HUVECs on Matrigel; type: cell-based, human; details: pre-incubated with rhsCD154 100 ng/ml for 15 minutes at 37° C.; 4 hours
From the text: FIGS. 7B-F show representative images of cell cord formation ability on Matrigel under the various experimental conditions mentioned above (B=unstimulated control; C=rhsCD154; D=rhsCD154+ 4.10 peptide; E=rhsCD154+ 4.10-ala peptide; F=rhsCD154+ blocking anti-CD154 antibody). Peptide 4.10 of the invention (SEQ ID NO: 6), contrary to control peptide 4.10-ala (SEQ ID NO: 8), inhibits the rhsCD154-induced ability of the endothelial cells of forming cell cords.
Furthermore, in order to evaluate the inhibitory effect, rhsCD154 (100 ng/ml) was pre-incubated for 15 minutes at 37° C. with peptide 4.10 (SEQ. ID NO: 6), or with control peptide 4.10-ala (SEQ. ID NO: 8), or with a blocking anti-human CD154 antibody. The flasks were then observed at 10× magnification for a period of 4 hours under a phase contrast inverted microscope equipped with a thermostatic chamber (at about 37° C.). The cells were photographed with a camera connected to the microscope, over the whole length of time of 4 hours at regular intervals of 15 minutes each. The migratory speed of each of the cells was calculated based on the position of the nucleus of each single cell in each single frame, using an image analysis software and, as a result, the average cell migratory speed (1 standard deviation) was calculated for each experimental condition. […] As a further confirmation of the ability of peptide 4.10 to prevent human endothelial CD40 stimulation by rhsCD154 (100 ng/ml), HUVECs (3.5×10^4) were subjected to an in vitro angiogenesis assay. HUVECs were plated on a tumor matrix (Matrigel, BD) capable of promoting the formation of super cellular organization, in a basal RPMI medium supplemented with 5% serum. Upon incubation at 37° C. under 5% CO2 for 4 hours, the cells were observed under a contrast phase inverted microscope.

[8] = rhsCD154 100 ng/ml alone, 48 hours

Row | Substance | increase in membrane expression of CD80 compared to basal levels [1, 8] [%] | increase in membrane expression of CD86 compared to basal levels [1, 8] [%] | increase in the number of B cells expressing membrane IgG [2] [%] | platelet aggregation induced by ADP 0.5 μM after priming [3] | increase in the basal motility of cells ([4]; rhsCD154 100 ng/ml alone) | cell migratory speed ([4]; rhsCD154 100 ng/ml alone, basal lower than 12 μm/h) [μm/h] | binding to J558L CD154+ cells [5] | competition with anti-human CD154 fluorescein-conjugated antibody specific for the active site of CD154 [6] | inhibition of rhsCD154-induced B cell activation (CD80 and CD86 expression) ([1]; 250 μM) | effect on rhsCD154-induced formation of vessel-like cell cords on Matrigel [7] | effect on rhsCD154-induced motility of HUVEC ([4]; pre-incubated with rhsCD154 100 ng/ml for 15 minutes at 37° C.)
1 | rhsCD154: recombinant soluble form of human CD154, used as the CD40 stimulus [reference compound] | 300 | 274 | 25 | did not enhance platelet aggregation | about 350% | 42 | – | – | – | – | –
2 | CLPTAHMAC (binding protein) [peptide 4.10-ala, control peptide; arginine at position 5 of peptide 4.10 replaced with alanine, reference compound] | – | – | – | – | – | – | least reactive | complete inactivation of the peptide's ability to compete | neither affected the expression of CD80 and CD86 | did not affect the ability of the cells to form vessel-like cell cords | did not affect endothelial CD40 stimulation
